Laboratory results: patent US6977262B2, “Dihydropyrazolopyridine compounds and pharmaceutical use thereof” (Mitsubishi Pharma Corporation, priority 2001, dated 2005)
Structures can show the parent of a compound that is named as a salt.

test system: not given; assay: not given; conditions: not given

melting point	Structure (SMILES)
273 °C	N#CC1=C(C2CCCCC2=O)Nc2n[nH]cc2C1c1cccc(C#N)c1Br (stereo not drawn) [Example 1062, 4-(2-Bromo-3-cyanophenyl)-5-cyano-4,7-dihydro-6-(2-oxocyclohexan-1-yl)-2H-pyrazolo[3,4-b]pyridine]
230 °C	CC(=O)CC1=C(C#N)C(c2cccc(C#N)c2Br)c2c[nH]nc2N1 (stereo not drawn) [Example 1063, 6-Acetylmethyl-4-(2-bromo-3-cyanophenyl)-5-cyano-4,7-dihydro-2H-pyrazolo[3,4-b]pyridine]
> 240 °C	N#CC1=C(C2CCCN2)Nc2n[nH]cc2C1c1cccc(C#N)c1Br (stereo not drawn) [Example 1068, 4-(2-Bromo-3-cyanophenyl)-5-cyano-6-(pyrrolidin-2-yl)-4,7-dihydro-2H-pyrazolo[3,4-b]pyridine]
> 240 °C	N#CC1=C(C2CCCN2)Nc2n[nH]cc2C1c1cccc2nonc12 (stereo not drawn) [Example 1070, 4-(2,1,3-Benzoxadiazol-4-yl)-5-cyano-4,7-dihydro-6-(pyrrolidin-2-yl)-2H-pyrazolo[3,4-b]pyridine]
> 250 °C	N#CC1=C(CN2C(=O)c3ccccc3C2=O)Nc2n[nH]cc2C1c1ccccc1Cl (stereo not drawn) [Example 1079, 4-(2-Chlorophenyl)-5-cyano-4,7-dihydro-6-phthalimidomethyl-2H-pyrazolo[3,4-b]pyridine]
225 to 228 °C (dec.)	CC(=O)C1=C(C#N)C(c2ccccc2Cl)c2c[nH]nc2N1 (stereo not drawn) [Example 1080, 6-Acetyl-4-(2-chlorophenyl)-5-cyano-4,7-dihydro-2H-pyrazolo[3,4-b]pyridine]
> 230 °C	CC(=O)C1=C(C#N)C(c2cccc(C#N)c2Br)c2c[nH]nc2N1 (stereo not drawn) [Example 1081, 6-Acetyl-4-(2-bromo-3-cyanophenyl)-5-cyano-4,7-dihydro-2H-pyrazolo[3,4-b]pyridine]
230 °C (dec.)	CC(=O)C1=C(C#N)C(c2cccc3nonc23)c2c[nH]nc2N1 (stereo not drawn) [Example 1082, 6-Acetyl-4-(2,1,3-benzoxadiazol-4-yl)-5-cyano-4,7-dihydro-2H-pyrazolo[3,4-b]pyridine]
> 230 °C	N#CC1=C(C2CC(=O)N(Cc3ccccc3)C2)Nc2n[nH]cc2C1c1ccccc1Cl (stereo not drawn) [Example 1083, 6-(1-Benzyl-2-oxopyrrolidin-4-yl)-4-(2-chlorophenyl)-5-cyano-4,7-dihydro-2H-pyrazolo[3,4-b]pyridine]
205 to 208 °C (dec.)	CCCC1=C(c2ccccn2)C(c2cccc(C#N)c2Br)c2c[nH]nc2N1 (stereo not drawn) [Example 1084, 4-(2-Bromo-3-cyanophenyl)-5-(pyridin-2-yl)-4,7-dihydro-6-propyl-2H-pyrazolo[3,4-b]pyridine]
210 to 215 °C (dec.)	N#CC1=C(C2CCNC2)Nc2n[nH]cc2C1c1ccccc1Cl (stereo not drawn) [Example 1086, 4-(2-Chlorophenyl)-5-cyano-4,7-dihydro-6-(pyrrolidin-3-yl)-2H-pyrazolo[3,4-b]pyridine]

Further lines, the compound ahead of its results:

Structure (SMILES)	melting point
N#CC1=C(C2CCNCC2)Nc2n[nH]cc2C1c1cccc2nonc12 (stereo not drawn) [Example 1002, 4-(2,1,3-Benzoxadiazol-4-yl)-5-cyano-4,7-dihydro-6-(piperidin-4-yl)-2H-pyrazolo[3,4-b]pyridine]	216 °C
CN1CC=C(C2=C(C#N)C(c3cccc(C#N)c3Br)c3c[nH]nc3N2)CC1 (stereo not drawn) [Example 1048, 4-(2-Bromo-3-cyanophenyl)-5-cyano-4,7-dihydro-6-(1-methyl-1,2,3,6-tetrahydropyridin-4-yl)-2H-pyrazolo[3,4-b]pyridine]	233 °C
CC(=O)N1CCC(C2=C(C#N)C(c3cccc(C#N)c3Br)c3c[nH]nc3N2)CC1 (stereo not drawn) [Example 1051, 6-(1-Acetylpiperidin-4-yl)-4-(2-bromo-3-cyanophenyl)-5-cyano-4,7-dihydro-2H-pyrazolo[3,4-b]pyridine]	> 280 °C
N#CC1=C(C2CCN(C(=O)c3ccccc3)CC2)Nc2n[nH]cc2C1c1cccc(C#N)c1Br (stereo not drawn) [Example 1052, 6-(1-Benzoylpiperidin-4-yl)-4-(2-bromo-3-cyanophenyl)-5-cyano-4,7-dihydro-2H-pyrazolo[3,4-b]pyridine]	> 280 °C
CS(=O)(=O)N1CCC(C2=C(C#N)C(c3cccc(C#N)c3Br)c3c[nH]nc3N2)CC1 (stereo not drawn) [Example 1053, 4-(2-Bromo-3-cyanophenyl)-5-cyano-4,7-dihydro-6-(1-methanesulfonylpiperidin-4-yl)-2H-pyrazolo[3,4-b]pyridine]	> 280 °C
CC(C)(C)OC(=O)N1CCC(C2=C(C#N)C(c3ccccc3Cl)c3c[nH]nc3N2)CC1 (stereo not drawn) [Example 1054, 6-(1-t-Butoxycarbonylpiperidin-4-yl)-4-(2-chlorophenyl)-5-cyano-4,7-dihydro-2H-pyrazolo[3,4-b]pyridine]	> 280 °C
N#CC1=C(C2CCNCC2)Nc2n[nH]cc2C1c1ccccc1Cl (stereo not drawn) [Example 1055, 4-(2-Chlorophenyl)-5-cyano-4,7-dihydro-6-(piperidin-4-yl)-2H-pyrazolo[3,4-b]pyridine]	221 °C
CC(=O)CC1=C(C#N)C(c2cccc3nonc23)c2c[nH]nc2N1 (stereo not drawn) [Example 1061, 6-Acetylmethyl-4-(2,1,3-benzoxadiazol-4-yl)-5-cyano-4,7-dihydro-2H-pyrazolo[3,4-b]pyridine]	200 °C

biological target: rabbit GSK-3β (Oryctolagus cuniculus, UniProt G1T8E2); assay: GSK-3β-inhibitory activity (phosphorylation of CREB phosphopeptide, [γ-32P]ATP, scintillation counting); assay type: biochemical; conditions: rabbit GSK-3β (0.5 unit), 30° C. for 20 minutes, Table 1
Sequence (G1T8E2 1-432): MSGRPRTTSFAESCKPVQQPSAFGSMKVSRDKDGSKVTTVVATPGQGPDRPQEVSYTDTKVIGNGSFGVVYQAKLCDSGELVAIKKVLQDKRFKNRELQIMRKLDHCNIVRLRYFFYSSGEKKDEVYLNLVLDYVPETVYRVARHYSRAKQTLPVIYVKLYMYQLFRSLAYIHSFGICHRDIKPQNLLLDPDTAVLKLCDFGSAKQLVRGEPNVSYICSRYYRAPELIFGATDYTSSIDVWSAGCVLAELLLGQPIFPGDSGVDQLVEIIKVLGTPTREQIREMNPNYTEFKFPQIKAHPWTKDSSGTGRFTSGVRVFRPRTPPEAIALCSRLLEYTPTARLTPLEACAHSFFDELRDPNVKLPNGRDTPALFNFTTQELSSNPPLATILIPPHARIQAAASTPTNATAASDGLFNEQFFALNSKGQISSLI
Experimental: CREB phosphopeptide ([…]), rabbit GSK-3β (0.5 unit), ATP ([…]), [γ-^32P]ATP (12.3 kBq) and a test compound were reacted in a GSK-3β buffer solution (25 μL) (20 mmol/L Tris-HCl (pH 7.5), 10 mmol/L magnesium chloride, 5 mmol/L dithiothreitol) containing 1% dimethyl sulfoxide, at 30° C. for 20 minutes. The reaction product (10 μL) was adsorbed on a P81 ion-exchange paper, and the paper was washed with phosphoric acid (100 mmol/L) and measured for cpm on a scintillation counter.
CREB Phosphopeptide is Lys-Arg-Arg-Glu-Ile-Leu-Ser-Arg-Arg-Pro-Ser(P)-Tyr-Arg.

IC50 [nM]	Structure (SMILES)
3	CC(=O)CC1=C(C#N)C(c2cccc(C#N)c2Br)c2c[nH]nc2N1 (stereo not drawn) [Example 1063, 6-Acetylmethyl-4-(2-bromo-3-cyanophenyl)-5-cyano-4,7-dihydro-2H-pyrazolo[3,4-b]pyridine]
0.61	N#CC1=C([C@@H]2C[C@H]3CC[C@@H]2NC3)Nc2n[nH]cc2C1c1cccc(C#N)c1Br (stereo partly drawn) [Example 1146, 6-(exo-2-Azabicyclo[2,2,2]octan-6-yl)-4-(2-bromo-3-cyanophenyl)-5-cyano-4,7-dihydro-2H-pyrazolo[3,4-b]pyridine 2 Hydrochloride]
3.2	CN1C[C@@H]2CC[C@H]1[C@H](C1=C(C#N)C(c3cccc(C#N)c3Br)c3c[nH]nc3N1)C2 (stereo partly drawn) [Example 1148, 4-(2-Bromo-3-cyanophenyl)-5-cyano-4,7-dihydro-6-(exo-2-methyl-2-azabicyclo[2,2,2]octan-6-yl)-2H-pyrazolo[3,4-b]pyridine]
2.2	CNC(C)C1=C(C#N)C(c2cccc(C#N)c2Br)c2c[nH]nc2N1 (stereo not drawn) [Example 1155, 4-(2-Bromo-3-cyanophenyl)-5-cyano-4,7-dihydro-6-(1-(methylamino)ethyl)-2H-pyrazolo[3,4-b]pyridine 2 Hydrochloride]
0.65	CCCC1=C(c2nnc(C)o2)C(c2cccc(C#N)c2Br)c2c[nH]nc2N1 (stereo not drawn) [Example 1158, 4-(2-Bromo-3-cyanophenyl)-4,7-dihydro-5-(5-methyl-1,3,4-oxadiazol-2-yl)-6-propyl-2H-pyrazolo[3,4-b]pyridine]

The remaining lines, values behind:

Structure (SMILES)	IC50 [nM]
N#CC1=C(C2CCNCC2)Nc2n[nH]cc2C1c1cccc2nonc12 (stereo not drawn) [Example 1002, 4-(2,1,3-Benzoxadiazol-4-yl)-5-cyano-4,7-dihydro-6-(piperidin-4-yl)-2H-pyrazolo[3,4-b]pyridine]	10
CN1CCC(C2=C(C#N)C(c3cccc4nonc34)c3c[nH]nc3N2)CC1 (stereo not drawn) [Example 1003, 4-(2,1,3-Benzoxadiazol-4-yl)-5-cyano-4,7-dihydro-6-(1-methylpiperidin-4-yl)-2H-pyrazolo[3,4-b]pyridine]	2.5
N#CC1=C(C2CCCCN2)Nc2n[nH]cc2C1c1cccc2nonc12 (stereo not drawn) [Example 1008, 4-(2,1,3-Benzoxadiazol-4-yl)-5-cyano-4,7-dihydro-6-(piperidin-2-yl)-2H-pyrazolo[3,4-b]pyridine]	3.7
CN1CCOC(C2=C(C#N)C(c3cccc4nonc34)c3c[nH]nc3N2)C1 (stereo not drawn) [Example 1011, 4-(2,1,3-Benzoxadiazol-4-yl)-5-cyano-4,7-dihydro-6-(4-methylmorpholin-2-yl)-2H-pyrazolo[3,4-b]pyridine]	14
CN(C)C1CCC(C2=C(C#N)C(c3cccc4nonc34)c3c[nH]nc3N2)CC1 (stereo not drawn) [Example 1023, 4-(2,1,3-Benzoxadiazol-4-yl)-5-cyano-4,7-dihydro-6-(4-(N,N-dimethylamino)cyclohexyl)-2H-pyrazolo[3,4-b]pyridine]	4.1
N#CC1=C(C2CCCCC2=O)Nc2n[nH]cc2C1c1cccc2nonc12 (stereo not drawn) [Example 1058, 4-(2,1,3-Benzoxadiazol-4-yl)-5-cyano-4,7-dihydro-6-(2-oxocyclohexan-1-yl)-2H-pyrazolo[3,4-b]pyridine]	1.8
